The results in this text go back to US11639329B2, “Lipids for use in lipid nanoparticle formulations” (ACUITAS THERAPEUTICS, INC., priority 2017, dated 2023).

Data set [1] concerns luciferase expression in the liver (FLuc mRNA). As to the kind of experiment: Luciferase mRNA in vivo evaluation using lipid nanoparticle compositions. Details: species or system mice (C57BL/6, CD-1). Particulars: LNP with FLuc mRNA, tail vein injection, liver 4 hours after administration; for Liver Luc (ng luc/g liver), *dosed at 0.3 mg/kg: dosed at 0.3 mg/kg (footnote *); for Liver Luc @ 0.5 mg/kg (ng luc/g liver): 0.5 mg mRNA/kg. On the procedure:
A lipid of structure (I), DSPC, cholesterol and PEG-lipid were solubilized in ethanol at a molar ratio of 50:10:38.5:1.5 or 47.5:10:40.8:1.7. Lipid nanoparticles (LNP) were prepared at a total lipid to mRNA weight ratio of approximately 10:1 to 30:1. Briefly, the mRNA was diluted to 0.2 mg/mL in 10 to 50 mM citrate buffer, pH 4. Syringe pumps were used to mix the ethanolic lipid solution with the mRNA aqueous solution at a ratio of about 1:5 to 1:3 (vol/vol) with total flow rates above 15 mL/min. The ethanol was then removed and the external buffer replaced with PBS by dialysis. Finally, the lipid nanoparticles were filtered through a 0.2 μm pore sterile filter.
Studies were performed in 6-8 week old female C57BL/6 mice (Charles River) 8-10 week old CD-1 (Harlan) mice (Charles River) according to guidelines established by an institutional animal care committee (ACC) and the Canadian Council on Animal Care (CCAC). Varying doses of mRNA-lipid nanoparticle were systemically administered by tail vein injection and animals euthanized at a specific time point (e.g., 4 hours) post-administration. Liver and spleen were collected in pre-weighed tubes, weights determined, immediately snap frozen in liquid nitrogen and stored at −80° C. until processing for analysis.
For liver, approximately 50 mg was dissected for analyses in a 2 mL FastPrep tubes (MP Biomedicals, Solon OH). ¼″ ceramic sphere (MP Biomedicals) was added to each tube and 500 μL of Glo Lysis Buffer—GLB (Promega, Madison Wis.) equilibrated to room temperature was added to liver tissue. Liver tissues were homogenized with the FastPrep24 instrument (MP Biomedicals) at 2×6.0 m/s for 15 seconds. Homogenate was incubated at room temperature for 5 minutes prior to a 1:4 dilution in GLB and assessed using SteadyGlo Luciferase assay system (Promega). Specifically, 50 μL of diluted tissue homogenate was reacted with 50 μL of SteadyGlo substrate, shaken for 10 seconds followed by 5 minute incubation and then quantitated using a CentroXS^3 LB 960 luminometer (Berthold Technologies, Germany). The amount of protein assayed was determined by using the BCA protein assay kit (Pierce, Rockford, Ill.). Relative luminescence units (RLU) were then normalized to total μg protein assayed. To convert RLU to ng luciferase a standard curve was generated with QuantiLum Recombinant Luciferase (Promega).
The FLuc mRNA (L-6107or L-7602) from Trilink Biotechnologies will express a luciferase protein, originally isolated from the firefly, photinus pyralis. FLuc is commonly used in mammalian cell culture to measure both gene expression and cell viability. It emits bioluminescence in the presence of the substrate, luciferin. This capped and polyadenylated mRNA is fully substituted with 5-methylcytidine and pseudouridine.
Compounds of structure (I) were formulated using the following molar ratio: 47.5% cationic lipid/ 10% distearoylphosphatidylcholine (DSPC)/40.8% Cholesterol/1.7% PEG lipid (“PEG-DMA” 2-[2-(ω-methoxy(polyethyleneglycol2000)ethoxy]-N,N-ditetradecylacetamide). Relative activity was determined by measuring luciferase expression in the liver 4 hours following administration via tail vein injection as described in Example 1.
The cationic lipids shown in Table 2 have previously been tested with nucleic acids. For comparative purposes, these lipids were also used to formulate lipid nanoparticles containing the FLue mRNA (L-6107) using an in line mixing method, as described in Example 1 and in PCT/US10/22614, which is hereby incorporated by reference in its entirety. Lipid nanoparticles may be formulated using the following molar ratio: 50% Cationic lipid/10% distearoylphosphatidylcholine (DSPC)/38.5% Cholesterol/1.5% PEG lipid (“PEG-DMG”, i.e., 1-(monomethoxy-polyethyleneglycol)-2,3-dimyristoylglycerol, with an average PEG molecular weight of 2000). In alternate embodiments, cationic lipid, DSPC, cholesterol and PEG-lipid are formulated at a molar ratio of approximately 47.5:10:40.8:1.7. […]

A short description of data set [2]: Determination of pKa of formulated lipids (TNS fluorescence assay in lipid nanoparticles). Type of data set: physicochemical. The following applies: probe TNS (2-(p-toluidino)-6-napthalene sulfonic acid); lipid formulated in LNP (compound/DSPC/cholesterol/PEG-lipid); pH giving half-maximal TNS fluorescence. The source says: As described elsewhere, the pKa of formulated lipids is correlated with the effectiveness of LNPs for delivery of nucleic acids (see Jayaraman et al, Angewandte Chemie, International Edition (2012), 51(34), 8529-8533; Semple et al, Nature Biotechnology 28, 172-176 (2010)). In some embodiments, the preferred range of pKa is ˜5 to ˜7. […] Lipid nanoparticles comprising compound of structure (I)/DSPC/cholesterol/PEG-lipid (50/10/38.5/1.5 or 47.5:10:40.8:1.7 mol %) in PBS at a concentration of 0.4 mM total lipid were prepared using the in-line process as described in Example 1. TNS was prepared as a 100 μM stock solution in distilled water. Vesicles were diluted to 24 μM lipid in 2 mL of buffered solutions containing 10 mM HEPES, 10 mM MES, 10 mM ammonium acetate, and 130 mM NaCl, where the pH ranged from 2.5 to 11. An aliquot of the TNS solution was added to give a final concentration of 1 μM and following vortex mixing fluorescence intensity was measured at room temperature in a SLM Aminco Series 2 Luminescence Spectrophotometer using excitation and emission wavelengths of 321 nm and 445 nm. A sigmoidal best fit analysis was applied to the fluorescence data and the pKa was measured as the pH giving rise to half-maximal fluorescence intensity.

Turning to `CCCCCCCCCN(CCO)CCN(CCCCCC(=O)OCC(CCCCCC)CCCCCCCC)CCCCCC(=O)OCC(CCCCCC)CCCCCCCC` (centres unmarked) [Compound 1], the “Liver Luc (ng luc/g liver), *dosed at 0.3 mg/kg” value (shortened to “Liver Luc (ng luc/g liver)”) in data set [1] was 330 ± 70* ng luc/g liver. Besides, the pKa (usually the negative logarithm of the acid dissociation constant) in data set [2] turned out to be 5.83.

Take `CCCCCCCCCN(CCCO)CCN(CCCCCC(=O)OCC(CCCCCC)CCCCCCCC)CCCCCC(=O)OCC(CCCCCC)CCCCCCCC` (centres unmarked) [Compound 2]: the “Liver Luc (ng luc/g liver)” value in data set [1] is listed as 553 ± 291* ng luc/g liver. In addition, the pKa in data set [2] turned out to be 5.76.

On to `CCCCCCCCC(CCCCCC)COC(=O)CCCCCCCN(CCCCCCCC(=O)OCC(CCCCCC)CCCCCCCC)CCN(CCO)CCCO` (centres unmarked) [Compound 3], for which the pKa in data set [2] came to 7.18.

Turning to `CCCCCCCCC(CCCCCC)COC(=O)CCCCCN(CCCCCC(=O)OCC(CCCCCC)CCCCCCCC)CCN(C)CCO` (centres unmarked) [Compound 4], the “Liver Luc (ng luc/g liver)” value in data set [1] is given as 50 ± 14* ng luc/g liver. In addition, in data set [2], the pKa came to 6.91.

Regarding `CCCCCCCCC(CCCCCC)COC(=O)CCCCCN(CCCCCC(=O)OCC(CCCCCC)CCCCCCCC)CCN(C)CCCCCCCCCO` (centres unmarked) [Compound 5], the “Liver Luc @ 0.5 mg/kg (ng luc/g liver)” value in data set [1] was found to be 1597 ± 456 ng luc/g liver. In addition, in data set [2], the pKa amounted to 6.17.

Consider `CCCCCCCCC(CCCCCC)COC(=O)CCCCCCCN(CCCCCCCC(=O)OCC(CCCCCC)CCCCCCCC)CCN(CC)CCCO` (centres unmarked) [Compound 6], for which the pKa in data set [2] worked out at 6.82.

On to `CCCCCCCCC(CCCCCC)COC(=O)CCCCCN(CCCCCC(=O)OCC(CCCCCC)CCCCCCCC)CCN(C)CCCCCCO` (centres unmarked) [Compound 7], for which the “Liver Luc @ 0.5 mg/kg (ng luc/g liver)” value in data set [1] turned out to be 16 ± 14 ng luc/g liver. In data set [2], the pKa is 6.69.

`CCCCCCC(CCCC)C(=O)OCCCCCCCCCN(CCCCCCCCCOC(=O)C(CCCC)CCCCCC)CCN(C)CCCCCCCCCO` (centres unmarked) [Compound 8]: in data set [1], the “Liver Luc @ 0.5 mg/kg (ng luc/g liver)” value is 54 ± 10 ng luc/g liver. The compound also displayed a pKa in data set [2] of 6.08.
